PubChem BioAssay AID328 (DTP/NCI, 2004)
Toxic doses and inconclusive results are not listed.

System: BDF1 mice, P388 leukemia ip, median survival T/C
Experiment: NCI In Vivo Anticancer Drug Screen. Data for tumor model P388 Leukemia (intraperitoneal) in B6D2F1 (BDF1) mice
Conditions: endpoint: median survival time, higher = longer survival
Summary of the method: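 In tumour-bearing mice, survival after compound treatment is set against the vehicle group and given as a quotient.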

[1] = dose: 100.0 mg/kg/injection, schedule: Q04DX003 (ip), vehicle: saline with Tween-80
[2] = dose: 12.5 mg/kg/injection, schedule: Q01DX009 (ip), vehicle: saline with Tween-80
[3] = dose: 25.0 mg/kg/injection, schedule: Q01DX009 (ip), vehicle: saline with Tween-80
[4] = dose: 50.0 mg/kg/injection, schedule: Q01DX009 (ip), vehicle: saline with Tween-80
[5] = dose: 100.0 mg/kg/injection, schedule: Q01DX009 (ip), vehicle: saline with Tween-80

CCN(CC)CCCNc1ncnc2onc(C)c12 was tested, and the T/C [1] was 101 % of control, the T/C (dose: 200.0 mg/kg/injection, schedule: Q04DX003 (ip), vehicle: saline with Tween-80) was 97 % of control and the T/C (dose: 400.0 mg/kg/injection, schedule: Q04DX003 (ip), vehicle: saline with Tween-80) was 106 % of control.

In the case of CC(CC(O)C(C)(C)C)C(C)(C)C (centres undefined), the T/C [2] is reported as 117 % of control, the T/C [3] is reported as 110 % of control and the T/C [4] is reported as 117 % of control.

O=C(/C=C/c1ccc(OCc2ccccc2)cc1)c1ccc(F)cc1 was tested, and the T/C [4] was 89 % of control, the T/C [5] was 98 % of control and the T/C (dose: 200.0 mg/kg/injection, schedule: Q01DX009 (ip), vehicle: saline with Tween-80) was 89 % of control.

In the case of NC(=S)N/N=C/c1ccc(-c2ccccc2)cc1, the T/C [2] is reported as 90 % of control, the T/C [3] is reported as 109 % of control and the T/C [4] is reported as 86 % of control.

For CCCN(CCC)CCCOC(=O)c1ccc([N+](=O)[O-])cc1, the T/C (dose: 50.0 mg/kg/injection, schedule: Q01DX001 (ip), vehicle: saline) was 100 % of control, the T/C (dose: 100.0 mg/kg/injection, schedule: Q01DX001 (ip), vehicle: saline) was 100 % of control and the T/C (dose: 200.0 mg/kg/injection, schedule: Q01DX001 (ip), vehicle: saline) was 100 % of control.

With O=C(O)C(OP(=O)(O)O)C(=O)O the T/C (dose: 25.0 mg/kg/injection, schedule: Q01DX009 (ip), vehicle: saline) was 110 % of control, the T/C (dose: 50.0 mg/kg/injection, schedule: Q01DX009 (ip), vehicle: saline) was 95 % of control and the T/C (dose: 100.0 mg/kg/injection, schedule: Q01DX009 (ip), vehicle: saline) was 94 % of control. For the same compound, the T/C (dose: 200.0 mg/kg/injection, schedule: Q01DX009 (ip), vehicle: saline) was 100 % of control.

In the case of NC(=O)C1(NC2CCCCC2)CCN(Cc2ccccc2)CC1, the T/C (dose: 50.0 mg/kg/injection, schedule: Q01DX009 (ip), vehicle: gum acacia) is reported as 107 % of control, the T/C (dose: 50.0 mg/kg/injection, schedule: Q04DX003 (ip), vehicle: gum acacia) is reported as 100 % of control and the T/C (dose: 100.0 mg/kg/injection, schedule: Q01DX009 (ip), vehicle: gum acacia) is reported as 107 % of control. For the same compound, the T/C (dose: 100.0 mg/kg/injection, schedule: Q04DX003 (ip), vehicle: gum acacia) was 91 % of control.

In the case of N#CC1CCCCC1C1(C#N)CCCCC1Cc1ccc2ccccc2n1 (centres undefined), the T/C (dose: 100.0 mg/kg/injection, schedule: Q04DX002 (ip), vehicle: saline with Tween-80) is reported as 96 % of control, the T/C (dose: 200.0 mg/kg/injection, schedule: Q04DX002 (ip), vehicle: saline with Tween-80) is reported as 104 % of control and the T/C (dose: 400.0 mg/kg/injection, schedule: Q04DX002 (ip), vehicle: saline with Tween-80) is reported as 107 % of control.

OCC(O)C(O)C(O)C(O)C(O)CO (centres undefined) was tested, and the T/C (dose: 100.0 mg/kg/injection, schedule: Q01DX010 (ip), vehicle: carboxymethylcellulose (CMC)) was 100 % of control, the T/C (dose: 100.0 mg/kg/injection, schedule: Q01DX010 (ip), vehicle: saline) was 95 % of control and the T/C (dose: 400.0 mg/kg/injection, schedule: Q01DX010 (ip), vehicle: carboxymethylcellulose (CMC)) was 100 % of control. The T/C (dose: 400.0 mg/kg/injection, schedule: Q01DX010 (ip), vehicle: saline) was 100 % of control.

Cc1ccc(NCC2(/N=C/c3ccccc3)OC(CO)C(O)C2O)cc1 (centres undefined) was tested, and the T/C (dose: 100.0 mg/kg/injection, schedule: Q04DX003 (ip), vehicle: Klucel (hydroxypropylcellulose) (HPC)) was 119 % of control, the T/C (dose: 200.0 mg/kg/injection, schedule: Q01DX009 (ip), vehicle: Klucel (hydroxypropylcellulose) (HPC)) was 150 % of control and the T/C (dose: 200.0 mg/kg/injection, schedule: Q04DX003 (ip), vehicle: Klucel (hydroxypropylcellulose) (HPC)) was 107 % of control. For the same compound, the T/C (dose: 400.0 mg/kg/injection, schedule: Q01DX009 (ip), vehicle: Klucel (hydroxypropylcellulose) (HPC)) was 158 % of control and the T/C (dose: 400.0 mg/kg/injection, schedule: Q04DX003 (ip), vehicle: Klucel (hydroxypropylcellulose) (HPC)) was 123 % of control.

For CCCCOC(=O)c1ccc(NC(=O)Nc2ccccc2OC)cc1, the T/C [1] was 100 % of control.

With C[Si](C)(C)C1([Si](C)(C)C)CO1 the T/C (dose: 100.0 mg/kg/injection, schedule: Q04DX003 (ip), vehicle: saline) was 108 % of control, the T/C (dose: 200.0 mg/kg/injection, schedule: Q04DX003 (ip), vehicle: saline) was 109 % of control and the T/C (dose: 400.0 mg/kg/injection, schedule: Q04DX003 (ip), vehicle: saline) was 108 % of control.

For C[Si](C)(C)O/C=C1\CCCCC1=O, the T/C [3] was 110 % of control and the T/C [5] was 117 % of control.

In the case of CCN(CC)P(Cl)(C1=C(Cl)C(=O)C(C#N)=C(C#N)C1=O)(N(CC)CC)N(CC)CC, the T/C (dose: 25.0 mg/kg/injection, schedule: Q01DX001 (ip), vehicle: saline with Tween-80) is reported as 97 % of control, the T/C (dose: 50.0 mg/kg/injection, schedule: Q01DX001 (ip), vehicle: saline with Tween-80) is reported as 95 % of control and the T/C (dose: 100.0 mg/kg/injection, schedule: Q01DX001 (ip), vehicle: saline with Tween-80) is reported as 95 % of control.
